In ChEMBL document CHEMBL5375962 (J Med Chem, 2023):
Values after ≈ are worked out from the molar mass of the structure shown. Active and inactive are the calls of the source. No cut-off for these calls is given here.

What was measured:
[1] = AUC in rat at 3 mg/kg, po measured after 12 hrs; assay type: ADME, organism-based; parameters: dose 3 mg/kg, time 12 hrs, route po; conditions: in vivo
[2] = AUC in dog at 1 mg/kg, iv; assay type: ADME, organism-based, Canis lupus familiaris; parameters: dose 1 mg/kg, route iv; conditions: in vivo
[3] = Clearance in rat at 1 mg/kg, iv measured after 12 hrs; assay type: ADME, organism-based; conditions: in vivo
[4] = Permeability in MDCK cells assessed as drug transport measured over 1 hr in presence of P-gp; assay type: ADME, cell-based, Canis lupus familiaris; conditions: dog
[5] = Metabolic stability in dog liver microsomes assessed as compound degradation measured after 30 mins; assay type: ADME, Canis lupus familiaris, Microsome; conditions: read-out: Drug degradation
[6] = Cmax in dog at 1 mg/kg, iv; assay type: ADME, organism-based, Canis lupus familiaris; parameters: dose 1 mg/kg, route iv; conditions: in vivo
[7] = Clearance in rat hepatocytes measured per 10^6 cells; assay type: ADME, cell-based, Hepatocyte; conditions: read-out: CLH
[8] = Clearance in human hepatocytes measured per 10^6 cells; assay type: ADME, cell-based, Hepatocyte; conditions: read-out: CLH
[9] = Inhibition of mouse KHK-C
[10] = Cmax in rat at 1 mg/kg, iv measured after 12 hrs; assay type: ADME, organism-based; parameters: dose 1 mg/kg, time 12 hrs, route iv; conditions: in vivo
[11] = Inhibition of mouse KHK-A
[12] = Cmax in rat at 3 mg/kg, po measured after 12 hrs; assay type: ADME, organism-based; parameters: dose 3 mg/kg, time 12 hrs, route po; conditions: in vivo
[13] = Oral bioavailability in rat at 3 mg/kg measured after 12 hrs; assay type: ADME, organism-based; conditions: in vivo
[14] = Volume of distribution in rat at 1 mg/kg, iv measured after 12 hrs; assay type: ADME, organism-based; conditions: in vivo
[15] = Thermodynamic solubility of the compound […] at pH 7.4; assay type: physicochemical; conditions: read-out: Therm_solubility
[16] = Tmax in rat at 3 mg/kg, po measured after 12 hrs; assay type: ADME, organism-based; conditions: in vivo
[17] = Half life in rat at 1 mg/kg, iv measured after 12 hrs; assay type: ADME, organism-based; conditions: in vivo
[18] = test system: Hepatocyte; assay: Cytotoxicity against rat Primary hepatocyte; assay type: toxicity, cell-based; conditions: hepatocytes
[19] = Clearance in dog at 1 mg/kg, iv; assay type: ADME, organism-based, Canis lupus familiaris; conditions: in vivo
[20] = Metabolic stability in rat liver microsomes assessed as compound degradation measured after 30 mins; assay type: ADME, Microsome; conditions: read-out: Drug degradation
[21] = Clearance in dog hepatocytes measured per 10^6 cells; assay type: ADME, cell-based, Canis lupus familiaris, Hepatocyte; conditions: read-out: CLH
[22] = AUC in rat at 1 mg/kg, iv measured after 12 hrs; assay type: ADME, organism-based; parameters: time 12 hrs, dose 1 mg/kg, route iv; conditions: in vivo
[23] = Metabolic stability in human liver microsomes assessed as compound degradation measured after 30 mins; assay type: ADME, Microsome; conditions: read-out: Drug degradation
[24] = Half life in rat at 3 mg/kg, po measured after 12 hrs; assay type: ADME, organism-based; conditions: in vivo
[25] = biological target: T1, Ketohexokinase (Homo sapiens, UniProt P50053); assay: Inhibition of KHK in human HepG2 cells incubated for 3 hrs by Rapidfire MS analysis; assay type: cell-based
T1 sequence (P50053 whole entry): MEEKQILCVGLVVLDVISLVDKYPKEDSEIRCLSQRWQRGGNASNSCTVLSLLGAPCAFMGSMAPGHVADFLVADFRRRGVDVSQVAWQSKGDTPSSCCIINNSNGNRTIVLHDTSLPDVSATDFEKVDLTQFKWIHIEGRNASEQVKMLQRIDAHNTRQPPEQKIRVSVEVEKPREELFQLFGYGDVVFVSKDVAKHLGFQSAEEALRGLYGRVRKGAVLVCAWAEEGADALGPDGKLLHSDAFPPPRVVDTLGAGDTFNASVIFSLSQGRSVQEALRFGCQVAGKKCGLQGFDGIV

[26] = Volume of distribution in dog at 1 mg/kg, iv; assay type: ADME, organism-based, Canis lupus familiaris; conditions: in vivo
[27] = Half life in dog at 1 mg/kg, iv; assay type: ADME, organism-based, Canis lupus familiaris; conditions: in vivo
[28] = Metabolic stability in mouse liver microsomes assessed as compound degradation measured after 30 mins; assay type: ADME, Microsome; conditions: read-out: Drug degradation
[29] = test system: Mus musculus; assay: Reduction in fructose level in 5 hrs fasted C57B6 mouse assessed as maximum effect at 100 mg/kg administered via oral gavage measured upto 180 mins by oral fructose challenge assay; assay type: functional, organism-based
[30] = biological target: T1, Ketohexokinase; assay: Inhibition of human KHK-A preincubated for 15 mins followed by substrate addition and measured after 20 mins in presence of ATP by Rapidfire MS analysis
[31] = biological target: T1, Ketohexokinase; assay: Inhibition of human KHK-C preincubated for 15 mins followed by substrate addition and measured after 20 mins in presence of ATP by Rapidfire MS analysis
[32] = Oral bioavailability in dog at 3 mg/kg; assay type: ADME, organism-based, Canis lupus familiaris; conditions: in vivo
[33] = Cmax in dog at 3 mg/kg, po; assay type: ADME, organism-based, Canis lupus familiaris; parameters: dose 3 mg/kg, route po; conditions: in vivo
[34] = Half life in dog at 3 mg/kg, po; assay type: ADME, organism-based, Canis lupus familiaris; conditions: in vivo
[35] = Tmax in dog at 3 mg/kg, po; assay type: ADME, organism-based, Canis lupus familiaris; conditions: in vivo
[36] = AUC in dog at 3 mg/kg, po; assay type: ADME, organism-based, Canis lupus familiaris; parameters: dose 3 mg/kg, route po; conditions: in vivo

C[C@H]1CCN1c1nc(-c2cnn(CC(=O)NCCO)c2)cc(C(F)(F)F)c1C#N
AUC at 12 h [1]: 5.09 µM·h
AUC [2]: 9.04 µM·h
clearance [3]: 16 mL/min/kg
Drug transport [4]: 15%
metabolised at 0.5 h [5]: 7%
Cmax [6]: 2340 nM
hepatocyte CLint [7]: 12 µL/min/1e6 cells
hepatocyte CLint [8]: 2.8 µL/min/1e6 cells
IC50 [9]: 28 nM
Cmax [10]: 1910 nM
IC50 [11]: 12 nM
Cmax [12]: 827 nM
bioavailability [13]: 62%
Vd [14]: 2.9 L/kg
solubility thermodynamic [15]: 39 µg/mL (≈ 95.5 µM)
Tmax [16]: 1.2 h
half-life [17]: 2.2 h
LC20 [18]: > 50000 nM
clearance [19]: 5 mL/min/kg
metabolised at 0.5 h [20]: 21%
hepatocyte CLint [21]: 3.2 µL/min/1e6 cells
AUC at 12 h [22]: 2.62 µM·h
metabolised at 0.5 h [23]: 4%
half-life [24]: 3 h
IC50 [25]: 84 nM
Vd [26]: 1.4 L/kg
half-life [27]: 5.2 h
metabolised at 0.5 h [28]: 19%

C[C@H]1CCN1c1nc(N2C[C@@H]3[C@@H](CC(=O)O)[C@@H]3C2)cc(C(F)(F)F)n1 [PF-06835919]
Activity [29]: Active
IC50 [9]: 20 nM
IC50 [11]: 30 nM

OC[C@H]1CCN1c1nc(-c2cnn(C3CNC3)c2)cc(C(F)(F)F)n1
AUC [2]: 1.31 µM·h
clearance [3]: 90 mL/min/kg
Drug transport [4]: 2.2%
metabolised at 0.5 h [5]: 0%
Cmax [6]: 2730 nM
hepatocyte CLint [7]: 10 µL/min/1e6 cells
hepatocyte CLint [8]: < 1.8 µL/min/1e6 cells
IC50 [9]: 32 nM
Cmax [10]: 1050 nM
IC50 [11]: 108 nM
Vd [14]: 3.4 L/kg
solubility thermodynamic [15]: 690 µg/mL (≈ 1950 µM)
half-life [17]: 0.7 h
LC20 [18]: > 50000 nM
clearance [19]: 37 mL/min/kg
metabolised at 0.5 h [20]: 0%
hepatocyte CLint [21]: 2 µL/min/1e6 cells
AUC at 12 h [22]: 0.531 µM·h
metabolised at 0.5 h [23]: 4%
IC50 [25]: 40 nM
Vd [26]: 5.2 L/kg
half-life [27]: 3.7 h
metabolised at 0.5 h [28]: 20%

C[C@H]1CCN1c1nc(-c2cnn(CC(=O)N(CCO)CCO)c2)cc(C(F)(F)F)c1C#N
clearance [3]: 23 mL/min/kg
Drug transport [4]: 2%
metabolised at 0.5 h [5]: 16%
hepatocyte CLint [7]: 6.1 µL/min/1e6 cells
hepatocyte CLint [8]: 43 µL/min/1e6 cells
IC50 [9]: 35 nM
Cmax [10]: 2940 nM
IC50 [11]: 16 nM
Vd [14]: 4.8 L/kg
solubility thermodynamic [15]: 28 µg/mL (≈ 61.9 µM)
half-life [17]: 2.4 h
LC20 [18]: > 50000 nM
metabolised at 0.5 h [20]: 9%
hepatocyte CLint [21]: 2.6 µL/min/1e6 cells
AUC at 12 h [22]: 1.59 µM·h
metabolised at 0.5 h [23]: 27%
IC50 [25]: 102 nM
metabolised at 0.5 h [28]: 30%

C[C@H]1CCN1c1nc(-c2cnn(CC(=O)N3C[C@@H](O)[C@H](O)C3)c2)cc(C(F)(F)F)c1C#N
clearance [3]: 71 mL/min/kg
Drug transport [4]: 0.5%
metabolised at 0.5 h [5]: 2%
hepatocyte CLint [7]: 2.2 µL/min/1e6 cells
hepatocyte CLint [8]: 6.1 µL/min/1e6 cells
IC50 [9]: 8 nM
Cmax [10]: 1830 nM
IC50 [11]: 7 nM
Vd [14]: 3.3 L/kg
solubility thermodynamic [15]: 19 µg/mL (≈ 42.2 µM)
half-life [17]: 0.6 h
LC20 [18]: > 50000 nM
metabolised at 0.5 h [20]: 0%
hepatocyte CLint [21]: 1.9 µL/min/1e6 cells
AUC at 12 h [22]: 0.53 µM·h
metabolised at 0.5 h [23]: 52%
IC50 [25]: 109 nM
metabolised at 0.5 h [28]: 13%

C[C@H]1CCN1c1nc(-c2cnn(C3CCNCC3)c2)cc(C(F)(F)F)c1C#N
IC50 [30]: 4 nM
Drug transport [4]: 8.7%
metabolised at 0.5 h [5]: 11%
hepatocyte CLint [7]: 3.7 µL/min/1e6 cells
IC50 [31]: 4 nM
hepatocyte CLint [8]: 3.5 µL/min/1e6 cells
IC50 [9]: 6 nM
IC50 [11]: 2 nM
solubility thermodynamic [15]: 39 µg/mL (≈ 99.9 µM)
LC20 [18]: < 9000 nM
metabolised at 0.5 h [20]: 2%
hepatocyte CLint [21]: 4.9 µL/min/1e6 cells
metabolised at 0.5 h [23]: 0%
IC50 [25]: 5 nM
metabolised at 0.5 h [28]: 24%

OC[C@H]1CCN1c1nc(-c2cnn(C3CCNCC3)c2)cc(C(F)(F)F)n1
AUC at 12 h [1]: 1.95 µM·h
AUC [2]: 1.97 µM·h
clearance [3]: 56 mL/min/kg
Drug transport [4]: 3.2%
metabolised at 0.5 h [5]: 7%
Cmax [6]: 2940 nM
hepatocyte CLint [7]: < 1.8 µL/min/1e6 cells
hepatocyte CLint [8]: 1.8 µL/min/1e6 cells
bioavailability [32]: 100%
IC50 [9]: 177 nM
Cmax [10]: 310 nM
IC50 [11]: 56 nM
Cmax [12]: 424 nM
bioavailability [13]: 95%
Vd [14]: 17 L/kg
solubility thermodynamic [15]: 750 µg/mL (≈ 1960 µM)
Tmax [16]: 1.7 h
Cmax [33]: 609 nM
half-life [17]: 4.3 h
LC20 [18]: > 50000 nM
clearance [19]: 23 mL/min/kg
metabolised at 0.5 h [20]: 0%
half-life [34]: 10 h
hepatocyte CLint [21]: 3.4 µL/min/1e6 cells
Tmax [35]: 2.3 h
AUC at 12 h [22]: 0.69 µM·h
metabolised at 0.5 h [23]: 3%
half-life [24]: 5 h
AUC [36]: 10.3 µM·h
Vd [26]: 8.4 L/kg
half-life [27]: 5 h
metabolised at 0.5 h [28]: 13%

C[C@H]1CCN1c1nc(-c2cnn(CC(=O)N3C[C@H](O)[C@@H](O)C3)c2)cc(C(F)(F)F)c1C#N
IC50 [30]: 7 nM
AUC [2]: 2.5 µM·h
clearance [3]: 101 mL/min/kg
Drug transport [4]: 0.5%
metabolised at 0.5 h [5]: 9%
Cmax [6]: 2650 nM
hepatocyte CLint [7]: 2.3 µL/min/1e6 cells
hepatocyte CLint [8]: 3.6 µL/min/1e6 cells
IC50 [9]: 12 nM
Cmax [10]: 1280 nM
IC50 [11]: 5 nM
Vd [14]: 4.6 L/kg
solubility thermodynamic [15]: 21 µg/mL (≈ 46.6 µM)
half-life [17]: 0.5 h
LC20 [18]: > 50000 nM
clearance [19]: 16 mL/min/kg
metabolised at 0.5 h [20]: 1%
hepatocyte CLint [21]: < 1.8 µL/min/1e6 cells
AUC at 12 h [22]: 0.381 µM·h
metabolised at 0.5 h [23]: 24%
IC50 [25]: 76 nM
Vd [26]: 2.7 L/kg
half-life [27]: 2.1 h
metabolised at 0.5 h [28]: 20%
